Results on three compounds are retold here after article PMC11477298, “Small Molecules Inducing Autophagic Degradation of Expanded Polyglutamine Protein through Interaction with Both Mutant ATXN3 and LC3” (International Journal of Molecular Sciences, 2024).

SMILES strings stand for the structures.

The test system of assay [1] is ATXN3-Q75-VC and VN-LC3. Description: Co-immunoprecipitation of VN-LC3 with ATXN3-Q75-VC in mixed 293T cell lysates. The class given is binding. Conditions: compound 100 µM; compared to without compound treatment. From the text: EcoRI-NcoI ATXN3 C-terminal Q14 and Q75-containing fragment (amino acids 251–361 in full-length ATXN3-Q14 [NM_004993]; [20]) and NcoI-NotI Venus C-terminal fragment (VC212-239) were subcloned into EcoRI- and NotI-digested pcDNA3 vector (Invitrogen) to generate pcDNA3-ATXN3-Q14−75-VC plasmid for producing ATXN3-Q14−75-VC fusion protein linked by a 6-amino acid polypeptide linker (containing NcoI restriction site). In addition, BamHI-XbaI Venus-N-terminal fragment (VN1-211) and XbaI-BamHI LC3 cDNA fragment (MAP1LC3B, NM_022818) were subcloned into BamHI-digested pcDNA5/FRT/TO vector (Invitrogen) to generate pcDNA5-VN-LC3 plasmid for producing VN-LC3 fusion protein linked by a 2-amino acid dipeptide linker (containing XbaI restriction site). The recombinant pcDNA3-ATXN3-Q14-VC, pcDNA3-ATXN3-Q75-VC, or pcDNA5-VN-LC3 plasmid (2 μg) was transiently transfected into 293T cells (2 × 10^5/6-well) using T-Pro non-liposome transfection reagent II (T-Pro Biotechnology #JT97-N002M, New Taipei City, Taiwan) according to the supplier’s instruction. After 48 h, cell lysate containing ATXN3-Q14-VC, ATXN3-Q75-VC, or VN-LC3 fusion protein was prepared using cytoskeleton (CSK) buffer containing 10 mM PIPES, 100 mM NaCl, 300 mM sucrose, 1 mM EGTA, 1 mM MgCl2, and 1 mM DTT and quantified, as described.
In this case, 293T cell lysates with transiently expressed ATXN3-Q14-VC, ATXN3-Q75-VC, or VN-LC3, and mixture of ATXN3-Q75-VC and VN-LC3 (100 μg of each) in 400 μL CSK buffer were incubated at 4 °C under gentle rotation. To test the concept of the ATTEC, 100 μM of the compound (NC009-1, -2, and -6 or LM-031) was added to the lysates containing ATXN3-Q75-VC and VN-LC3 proteins. After overnight incubation, ATXN3-Q14−75-VC protein was immunoprecipitated with rabbit ataxin-3 (1:1000; Invitrogen #PA5-26251) or mouse 5TF1-1C2 antibody (1:500; Merck #MAB1574, Darmstadt, Germany) at 4 °C overnight. […] The immune complexes were detected using HRP-conjugated goat anti-rabbit (#GTX213110-01) or goat anti-mouse (#GTX213111-01) IgG antibody (1:5000; GeneTex) and chemiluminescent substrate, as described.

The test system of assay [2] is 293T cells co-expressing ATXN3-Q75-VC and VN-LC3. Briefly: BiFC high-content analysis of transfected 293T cells. The class given is cell-based, human. As to conditions: compound 10 μM; 24 h post-induction; untreated = 100%; range over the three named compounds. The source says:
pTRE3G-BI-VN-LC3-ATXN3-Q14−75-VC was constructed by subcloning the ATXN3-Q14−75-VC KpnI-XbaI fragment and VN-LC3 BamHI fragment of the aforementioned plasmids into the corresponding restriction sites in multiple cloning site (MCS)-2 (ATXN3-Q14−75-VC fragment) or MCS-1 (VN-LC3 fragment) of the pTRE3G-BI vector (Clontech, Mountain View, CA, USA). The resulting plasmid allows the simultaneous expression of ATXN3-Q14−75-VC and VN-LC3 proteins from a bidirectional, Tet-responsive promoter that binds the Tet-On 3G trans-activator protein in the presence of doxycycline and co-transfected pCMV-Tet3G. Next, 293T cells (2 × 10^5) were plated onto 6-well plates on day 1. Upon the next day, the constructed pTRE3G-BI-VN-LC3-ATXN3-Q 14−75-VC (2 μg) together with pCMV-Tet3G (0.5 μg) were transiently co-transfected into cells using GenJet in vitro DNA transfection reagent (SignaGen Laboratories #SL100488, Rockville, MD, USA). Doxycycline (1 μg/mL) was added to cells to induce ATXN3-Q14−75-VC and VN-LC3 expression on day 3. Cell lysates were prepared at 24 h post-induction and analyzed by Western blot using ataxin-3 (1:1000; Invitrogen #PA5-26251) or LC3 (1:2000; MBL International #PM036) antibody. In addition, at 0, 6, 9, 12, and 24 h post-transfection, the pTRE3G-BI-VN-LC3-ATXN3-Q75-VC transfected cells were fixed, permeabilized, blocked, and stained with 5TF1-1C2 (1:1000; Merck #MAB1574) antibody at 4 °C overnight, followed by Cy5-donkey anti-mouse IgG secondary antibody (1:1000; Jackson ImmunoResearch #715-175-151) staining for 2 h at room temperature. Nuclei were counterstained with DAPI (0.1 μg/mL; Sigma-Aldrich). Cell images were obtained at excitation/emission wavelengths of 482/536 nm (FITC filter) for Venus, 631/692 nm (Cy5 filter) for stained expanded ATXN3-Q75 protein, and 377/447 nm (DAPI filter) for detecting nuclei (ImageXpress Micro Confocal; Molecular Devices).
On day 3, doxycycline (1 μg/mL) was added to the aforementioned transfected 293T cells along with NC009-1, -2, or -6 or LM-031 (10 μM). At 24 h post-transfection, the transfected cells were fixed, permeabilized, blocked, and stained with 5TF1-1C2 antibody, as described. After nucleus staining (DAPI, 0.1 μg/mL), the captured images were analyzed as described for overlapped ATXN3-Q75 and Venus signals and the green fluorescence of Venus-tagged LC3 puncta using the high-content imaging system, as described.

For the compound `CC(=O)/C(=C\c1ccccc1[N+](=O)[O-])Cc1c(C)[nH]c2ccccc12` [NC009-2], the “Amount of VN-LC3 co-immunoprecipitated by 5TF1-1C2 antibody” value (“Amount of VN-LC3 co-immunoprecipitated” for short) in assay [1] is “notably increased”. Further, in assay [2], the “Green fluorescence of Venus-tagged LC3 puncta” value (“Green fluorescence” for short) was 121–122%; the “Overlapping of green (Venus) and red (ATXN3-Q75) signals” value (“Overlapping of green (Venus) and red” for short) is 117–119%.

On to `O=C(c1ccccc1)c1cc2c(O)cccc2oc1=O` [LM-031], for which the “Amount of VN-LC3 co-immunoprecipitated” value in assay [1] is “notably increased”. Besides, in assay [2], the “Green fluorescence” value is listed as 121–122%; the “Overlapping of green (Venus) and red” value is on record as 117–119%.

Turning to `CC(=O)/C(=C\c1ccccc1[N+](=O)[O-])Cc1c[nH]c2ccccc12` [NC009-1], the “Amount of VN-LC3 co-immunoprecipitated” value in assay [1] is listed as “notably increased”. In assay [2], the “Green fluorescence” value is 121–122%; the “Overlapping of green (Venus) and red” value is reported as 117–119%.
